This assay concerns the target human PAD4 (hPAD4) (Homo sapiens (Human), UniProt Q9UM07). In words: RFMS Human PAD4 Functional Assay 1. The format is biochemical. The note with it: RFMS assay 1; 5 nM hPAD4, 250 μM BAEE substrate, 50 μM calcium, 37° C. The method, then:
RFMS Human PAD4 Functional Assay 1:
Compounds were solubilized in 100% DMSO to achieve all) mM compound concentration. Compound stock solutions were stored at RT. A series of dilutions were prepared in DMSO and mixed 8 times with 20 μL mixing volume. Final top concentration of compound in the assay is 50 μM. Final assay conditions were as follows: • Reaction volume: 26 μl • Assay buffer: 25 mM hepes, pH 7.5, 5 mM NaCl, 1 mM DTT, 0.2 mg/ml BSA, 0.01% CHAPS, 50 μM Calcium, and 5 μM TPEN • Final concentrations: 5 nM hPAD4 enzyme, 250 μM BASE, and 0.5% DMSO • Total incubation time: 30 mins compound and enzyme preincubation at 37° C., 90 min enzyme/substrate reaction, 30 min reaction with phenyl glyoxal at 37° C. • Stop solution: 40 μl 5% TCA in ACN
0.13 μL of compound solution was added to 13 μL of 10 nM PAD4 in assay buffer. After 30 min 13 μl of 500 μM of BAEE was added in 25 mM hepes, pH 7.5, 5 mM NaCl, 1 mM DTT, 0.2 mg/ml BSA, 0.01% CHAPS, 50 μM Calcium, 5 μM TPEN was added and the reaction incubated for 90 min at 37° C. The enzymatic reaction was quenched by addition of 15 μl of 6.1N TCA, 100% Final Concentration is 20%, 35 μl of 8.5 mM phenyl glyoxal (final concentration 4 mM) is then added and the reaction is incubated for 30 min at 37° C.
After 30 minutes the plates are spun down to remove all precipitate. The enzyme reaction was quenched with an equal volume of methanol containing internal standard (modified citrulline). Samples were loaded onto the Rapid Fire RF300 system (Agilent) wherein they were first sipped for 1000 ms and then directly loaded to a C18 separations cartridge using a mixture of acetonitrile containing 0.01% formic acid for 3000 ms desalting. The flow rate of the mobile phase was 1.5 ml/min. Once the samples were eluted from the cartridge, a mobile phase of acetonitrile containing 0.01% formic acid was used to move the samples into the mass spectrometer for 4000 ms at a flow rate of 1.25 ml/min/Sciex API5500 triple quadrupole mass spectrometer (Applied Biosystems) equipped with ESI was used to analyze the peptidyl citrulline and internal standard ions.
MRM transition of product and internal standard were monitored at m/z 424.5 to 350.4 and m/z 293 to 247 respectively. The dwell time for each transition was set at 200 ms, and the ESI voltage was used at 5500 with a source temperature of 400° C. Extracted ion peaks for each transition were integrated using the Rapid Fire Integrator software. Peak area of analyte was normalized with internal standard.).
human PAD4 (hPAD4), sequence (Q9UM07 whole entry): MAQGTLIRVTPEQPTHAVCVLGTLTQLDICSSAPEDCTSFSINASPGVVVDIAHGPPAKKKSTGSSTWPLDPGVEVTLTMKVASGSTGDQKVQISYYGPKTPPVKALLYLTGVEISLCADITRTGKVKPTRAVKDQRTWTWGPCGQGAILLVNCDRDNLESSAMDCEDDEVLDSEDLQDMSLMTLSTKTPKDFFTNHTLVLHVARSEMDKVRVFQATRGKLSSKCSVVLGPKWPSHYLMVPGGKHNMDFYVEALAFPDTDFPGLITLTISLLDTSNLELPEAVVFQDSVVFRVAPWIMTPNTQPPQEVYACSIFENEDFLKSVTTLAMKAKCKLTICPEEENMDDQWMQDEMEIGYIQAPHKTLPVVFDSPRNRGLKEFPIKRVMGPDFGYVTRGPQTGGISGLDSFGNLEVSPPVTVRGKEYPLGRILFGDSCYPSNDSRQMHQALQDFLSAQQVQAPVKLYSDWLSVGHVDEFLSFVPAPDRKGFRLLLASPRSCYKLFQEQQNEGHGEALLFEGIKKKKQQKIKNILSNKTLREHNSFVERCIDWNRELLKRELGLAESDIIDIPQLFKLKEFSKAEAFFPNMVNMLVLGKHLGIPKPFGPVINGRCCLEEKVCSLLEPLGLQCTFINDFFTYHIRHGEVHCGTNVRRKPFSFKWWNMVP
For `COc1cc(C(=O)N2C[C@H](N)C[C@@H](F)C2)cn2nc(-c3cc4cccc(C5CCN(C(=O)C6CCCO6)CC5)c4n3CC3CC3)c(C)c12` (single isomer, unassigned) [Example 397], the IC50 worked out at 40 nM.
As for `Cc1c(-c2cc3cc(F)cc(C4CCN(C(=O)C5CCCO5)CC4)c3n2CC2CC2)nn2cc(C(=O)N3CCC[C@@H](N)C3)ccc12` (single isomer, unassigned) [Example 488], the figure is 250 nM; as for `Cc1c(-c2cc3cc(F)cc(C4CCN(C(=O)C5CCCO5)CC4)c3n2CC2CC2)nn2cc(C(=O)N3CCC[C@@H](N)C3)ccc12` (single isomer, unassigned) [Example 489], 70 nM.
As for `Cc1c(-c2cc3cc(F)cc(C4CCN(C(=O)C5CCCO5)CC4)c3n2CC2CC2)nn2cc(C(=O)N3C[C@H](N)C[C@@H](F)C3)ccc12` (single isomer, unassigned) [Example 490], the figure is 150 nM; as for `Cc1c(-c2cc3cc(F)cc(C4CCN(C(=O)C5CCCO5)CC4)c3n2CC2CC2)nn2cc(C(=O)N3C[C@H](N)C[C@@H](F)C3)ccc12` (single isomer, unassigned) [Example 491], 1310 nM; as for `COc1cc(C(=O)N2CCC[C@@H](N)C2)cn2nc(-c3cc4cccc(OCC5CC(=O)N(C)C5)c4n3CC3CC3)c(C)c12` (single isomer, unassigned) [Example 551], 160 nM.
For the compound `COc1cc(C(=O)N2CCC[C@@H](N)C2)cn2nc(-c3cc4cccc(OCC5CC(=O)N(C)C5)c4n3CC3CC3)c(C)c12` (single isomer, unassigned) [Example 552], the IC50 came out at 100 nM.
With `COc1cc(C(=O)N2C[C@H](N)C[C@@H](F)C2)cn2nc(-c3cc4cccc(OCC5CC(=O)N(C)C5)c4n3CC3CC3)c(C)c12` (single isomer, unassigned) [Example 553], the half-inhibitory concentration (IC50) was 90 nM.
As for `COc1cc(C(=O)N2C[C@H](N)C[C@@H](F)C2)cn2nc(-c3cc4cccc(OCC5CC(=O)N(C)C5)c4n3CC3CC3)c(C)c12` (single isomer, unassigned) [Example 554], the figure is 60 nM.
As for `COc1cc(C(=O)N2CCC[C@@H](N)C2)cn2nc(-c3cc4cccc(OCC5CNC(=O)C5)c4n3CC3CC3)c(C)c12` (single isomer, unassigned) [Example 562], the figure is 140 nM; as for `COc1cc(C(=O)N2C[C@H](N)C[C@@H](F)C2)cn2nc(-c3cc4cccc(OCC5CNC(=O)C5)c4n3CC3CC3)c(C)c12` (single isomer, unassigned) [Example 563], 70 nM.
Next, `COc1cc(C(=O)N2CCC[C@@H](N)C2)cn2nc(-c3cc4cccc(OCC5CNC(=O)C5)c4n3CC3CC3)c(C)c12` (single isomer, unassigned) [Example 564]: 40 nM; `COc1cc(C(=O)N2C[C@H](N)C[C@@H](F)C2)cn2nc(-c3cc4cccc(OCC5CNC(=O)C5)c4n3CC3CC3)c(C)c12` (single isomer, unassigned) [Example 565]: 20 nM; `Cc1c(-c2cc3cccc(OCC4CNC(=O)C4)c3n2CC2CC2)nn2cc(C(=O)N3CCC[C@@H](N)C3)cc(F)c12` (single isomer, unassigned) [Example 566]: 10 nM.
In the case of `Cc1c(-c2cc3cccc(OCC4CNC(=O)C4)c3n2CC2CC2)nn2cc(C(=O)N3C[C@H](N)C[C@@H](F)C3)cc(F)c12` (single isomer, unassigned) [Example 567], the IC50 worked out at 20 nM.
Next, `Cc1c(-c2cc3cccc(OCC4CNC(=O)C4)c3n2CC2CC2)nn2cc(C(=O)N3CCC[C@@H](N)C3)cc(F)c12` (single isomer, unassigned) [Example 571]: 30 nM; `Cc1c(-c2cc3cccc(OCC4CNC(=O)C4)c3n2CC2CC2)nn2cc(C(=O)N3C[C@H](N)C[C@@H](F)C3)cc(F)c12` (single isomer, unassigned) [Example 572]: 80 nM.
Turning to `Cc1c(-c2cc3cccc(OCC4CNC(=O)C4)c3n2CC2CC2)nn2cc(C(=O)N3C[C@H](N)C[C@@H](F)C3)ccc12` (single isomer, unassigned) [Example 573], the IC50 came to 110 nM.
Consider `Cc1c(-c2cc3cccc(OCC4CC(=O)N(C)C4)c3n2CC2CC2)nn2cc(C(=O)N3CCC[C@@H](N)C3)ccc12` (single isomer, unassigned) [Example 576], for which the 50% inhibitory concentration (IC50) turned out to be 190 nM.
On to `Cc1c(-c2cc3cccc(OCC4CC(=O)N(C)C4)c3n2CC2CC2)nn2cc(C(=O)N3C[C@H](N)C[C@@H](F)C3)ccc12` (single isomer, unassigned) [Example 577], for which the IC50 amounted to 150 nM.
With `Cc1c(-c2cc3cccc(OCC4CC(=O)N(C)C4)c3n2CC2CC2)nn2cc(C(=O)N3CCC[C@@H](N)C3)ccc12` (single isomer, unassigned) [Example 578], the concentration for half-maximal inhibition (IC50) came out at 190 nM.
Next, `Cc1c(-c2cc3cccc(OCC4CC(=O)N(C)C4)c3n2CC2CC2)nn2cc(C(=O)N3C[C@H](N)C[C@@H](F)C3)ccc12` (single isomer, unassigned) [Example 579]: 240 nM.
Next, `Cc1c(-c2cc3cccc(OCC4CNC(=O)C4)c3n2CC2CC2)nn2cc(C(=O)N3CCC[C@@H](N)C3)ccc12` (single isomer, unassigned) [Example 588]: 230 nM.
As for `Cc1c(-c2cc3cccc(OCC4CNC(=O)C4)c3n2CC2CC2)nn2cc(C(=O)N3CCC[C@@H](N)C3)ccc12` (single isomer, unassigned) [Example 589], the figure is 60 nM; as for `Cc1c(-c2cc3cccc(OCC4CNC(=O)C4)c3n2CC2CC2)nn2cc(C(=O)N3C[C@H](N)C[C@@H](F)C3)ccc12` (single isomer, unassigned) [Example 590], 30 nM; as for `COc1cc(C(=O)N2CCC[C@@H](N)C2)cn2nc(-c3cc4ccnc(OCC5CNC(=O)C5)c4n3CC3CC3)c(C)c12` (single isomer, unassigned; isomer 1) [Example 591], 30 nM.
As to `COc1cc(C(=O)N2C[C@H](N)C[C@@H](F)C2)cn2nc(-c3cc4ccnc(OCC5CNC(=O)C5)c4n3CC3CC3)c(C)c12` (single isomer, unassigned; isomer 1) [Example 601], the 50% inhibitory concentration (IC50) is 30 nM.
As for `COc1cc(C(=O)N2CC3CCC2[C@@H]3N)cn2nc(-c3cc4ccnc(OCC5CNC(=O)C5)c4n3CC3CC3)c(C)c12` (single isomer, unassigned; isomer 1) [Example 605], the figure is 70 nM.
Next, `Cc1c(-c2cc3ccnc(OCC4CNC(=O)C4)c3n2CC2CC2)nn2cc(C(=O)N3C[C@H](N)C[C@@H](F)C3)ccc12` (single isomer, unassigned; isomer 1) [Example 614]: 60 nM; `Cc1c(-c2cc3ccnc(OCC4CNC(=O)C4)c3n2CC2CC2)nn2cc(C(=O)N3CCC[C@@H](N)C3)ccc12` (single isomer, unassigned; isomer 1) [Example 618]: 50 nM.
Next, `COc1cc(C(=O)N2C[C@H](N)C[C@@H](F)C2)cn2nc(-c3cc4ccnc(OCC5CNC(=O)C5)c4n3CC3CC3)c(C)c12` (single isomer, unassigned; isomer 2) [Example 602]: 30 nM.
Consider `COc1cc(C(=O)N2CCC[C@@H](N)C2)cn2nc(-c3cc4ccnc(OCC5CNC(=O)C5)c4n3CC3CC3)c(C)c12` (single isomer, unassigned; isomer 2) [Example 603], for which the half-maximal inhibitory concentration (IC50) is 100 nM.
As to `COc1cc(C(=O)N2CC3CCC2[C@@H]3N)cn2nc(-c3cc4ccnc(OCC5CNC(=O)C5)c4n3CC3CC3)c(C)c12` (single isomer, unassigned; isomer 2) [Example 606], the 50% inhibitory concentration (IC50) was 50 nM.
As to `Cc1c(-c2cc3ccnc(OCC4CNC(=O)C4)c3n2CC2CC2)nn2cc(C(=O)N3C[C@H](N)C[C@@H](F)C3)ccc12` (single isomer, unassigned; isomer 2) [Example 615], the IC50 was determined as 70 nM.
Turning to `Cc1c(-c2cc3ccnc(OCC4CNC(=O)C4)c3n2CC2CC2)nn2cc(C(=O)N3CCC[C@@H](N)C3)ccc12` (single isomer, unassigned; isomer 2) [Example 619], the 50% inhibitory concentration (IC50) was determined as 40 nM.

What is called IC50 is the concentration at which inhibition is half-maximal.

The record behind these values is patent publication US12473304B2, “Heterocyclic PAD4 inhibitors” (BRISTOL-MYERS SQUIBB COMPANY, priority 2020, dated 2025).
